Target: T1, human TLR8 (Homo sapiens, UniProt Q9NR97)
T1 sequence (Q9NR97 27-1041): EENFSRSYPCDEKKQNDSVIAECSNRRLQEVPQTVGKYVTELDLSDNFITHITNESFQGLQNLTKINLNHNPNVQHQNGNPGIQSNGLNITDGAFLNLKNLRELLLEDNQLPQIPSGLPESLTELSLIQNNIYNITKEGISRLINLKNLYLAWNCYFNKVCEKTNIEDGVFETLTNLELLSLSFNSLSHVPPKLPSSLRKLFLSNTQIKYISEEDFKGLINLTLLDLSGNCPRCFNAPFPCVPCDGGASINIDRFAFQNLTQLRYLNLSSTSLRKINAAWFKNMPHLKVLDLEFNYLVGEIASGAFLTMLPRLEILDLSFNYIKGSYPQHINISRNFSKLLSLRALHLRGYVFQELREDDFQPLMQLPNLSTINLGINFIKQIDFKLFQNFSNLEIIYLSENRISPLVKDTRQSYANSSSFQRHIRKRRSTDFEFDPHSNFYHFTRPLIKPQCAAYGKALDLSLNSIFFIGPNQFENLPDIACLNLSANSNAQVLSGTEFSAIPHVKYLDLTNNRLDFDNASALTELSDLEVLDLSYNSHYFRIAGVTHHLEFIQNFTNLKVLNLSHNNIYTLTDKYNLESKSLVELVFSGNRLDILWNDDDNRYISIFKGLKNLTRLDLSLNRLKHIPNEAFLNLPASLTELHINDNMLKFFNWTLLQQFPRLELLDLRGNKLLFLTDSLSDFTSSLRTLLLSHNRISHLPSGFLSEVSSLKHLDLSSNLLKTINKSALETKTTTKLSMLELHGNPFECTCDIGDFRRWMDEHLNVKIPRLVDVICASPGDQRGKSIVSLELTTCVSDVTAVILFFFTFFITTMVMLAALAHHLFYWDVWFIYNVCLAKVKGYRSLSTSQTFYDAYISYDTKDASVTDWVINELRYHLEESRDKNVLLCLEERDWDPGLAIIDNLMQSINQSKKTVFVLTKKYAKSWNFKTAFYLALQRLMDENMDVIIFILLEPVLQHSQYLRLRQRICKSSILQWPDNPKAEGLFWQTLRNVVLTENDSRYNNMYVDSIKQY
Test: HEK293-Blue-hTLR-8 cells assay (SEAP reporter, R848 stimulation)
Format: cell-based
Conditions: HEK293-Blue-hTLR8 cells, R848 ligand, 20 hrs; read-out: HEK/hTLR8 IC50
Description: The following tests were carried out in order to determine the activity of the compounds of formula (I), (Ia) or (Ib) in HEK293-Blue-hTLR-7/8/9 cells assay.
HEK293-Blue-hTLR-8 Cells Assay:
A stable HEK293-Blue-hTLR-8 cell line was purchased from InvivoGen (Cat. #: hkb-htlr8, San Diego, California, USA). These cells were originally designed for studying the stimulation of human TLR8 by monitoring the activation of NF-κB. A SEAP (secreted embryonic alkaline phosphatase) reporter gene was placed under the control of the IFN-β minimal promoter fused to five NF-κB and AP-1-binding sites. The SEAP was induced by activating NF-κB and AP-1 via stimulating HEK-Blue hTLR8 cells with TLR8 ligands. Therefore the reporter expression was declined by TLR8 antagonist under the stimulation of a ligand, such as R848, for incubation of 20 hrs. The cell culture supernatant SEAP reporter activity was determined using QUANTI-Blue™ kit (Cat. #: rep-qb1, Invivogen, San Diego, Ca., USA) at a wavelength of 640 nm, a detection medium that turns purple or blue in the presence of alkaline phosphatase.
HEK293-Blue-hTLR8 cells were incubated at a density of 250,000˜450,000 cells/mL in a volume of 170 μL in a 96-well plate in Dulbecco's Modified Eagle's medium (DMEM) containing 4.5 g/L glucose, 50 U/mL penicillin, […], […], 2 mM L-glutamine, 10% (v/v) heat-inactivated fetal bovine serum with addition of 20 μL test compound in a serial dilution in the presence of final DMSO at 1% and 10 μL of 60 uM R848 in above DMEM, perform incubation under 37° C. in a CO2 incubator for 20 hrs. Then 20 μL of the supernatant from each well was incubated with 180 μL Quanti-blue substrate solution at 37° C. for 2 hrs and the absorbance was read at 620-655 nm using a spectrophotometer. The signaling pathway that TLR8 activation leads to downstream NF-κB activation has been widely accepted, and therefore similar reporter assay was modified for evaluating TLR8 antagonist.

| IC50 | SMILES |
| --- | --- |
| 1.5 nM | C[C@@H]1CN(c2ccc(C#N)c3ncccc23)C[C@@H]2CCN(c3cc4c(cn3)CNCC4)CCN21 [Example 7, 5-[(4R,10aS)-4-methyl-8-(5,6,7,8-tetrahydro-2,7-naphthyridin-3-yl)-1,3,4,6,7,9,10,10a-octahydropyrazino[1,2-d][1,4]diazepin-2-yl]quinoline-8-carbonitrile] |
| 8.6 nM | C[C@@H]1CN(c2ccc(C#N)c3ncccc23)C[C@@H]2CCN(Cc3cc4c(cn3)CNCC4)CCN21 [Example 8, 5-[(4R,10aS)-4-methyl-8-(5,6,7,8-tetrahydro-2,7-naphthyridin-3-ylmethyl)-1,3,4,6,7,9,10,10a-octahydropyrazino[1,2-d][1,4]diazepin-2-yl]quinoline-8-carbonitrile] |
| 6.4 nM | C[C@@H]1CN(c2ccc(C#N)c3ncccc23)C[C@@H]2CCN(Cc3cc4c(cn3)CCNC4)CCN21 [Example 9, 5-[(4R,10aS)-4-methyl-8-(5,6,7,8-tetrahydro-2,6-naphthyridin-3-ylmethyl)-1,3,4,6,7,9,10,10a-octahydropyrazino[1,2-d][1,4]diazepin-2-yl]quinoline-8-carbonitrile] |
| 5.2 nM | C[C@@H]1CN(c2ccc(C#N)c3ncccc23)C[C@@H]2CCN(Cc3cnc4c(c3)CNCC4)CCN21 [Example 10, 5-[(4R,10aS)-4-methyl-8-(5,6,7,8-tetrahydro-1,6-naphthyridin-3-ylmethyl)-1,3,4,6,7,9,10,10a-octahydropyrazino[1,2-d][1,4]diazepin-2-yl]quinoline-8-carbonitrile] |
| 4.2 nM | C[C@@H]1CN(c2ccc(C#N)c3ncccc23)C[C@@H]2CCN(Cc3ccc4c(c3)CCNC4)CCN21 [Example 11, 5-[(4R,10aS)-4-methyl-8-(1,2,3,4-tetrahydroisoquinolin-6-ylmethyl)-1,3,4,6,7,9,10,10a-octahydropyrazino[1,2-d][1,4]diazepin-2-yl]quinoline-8-carbonitrile] |

The next lines start with the compound.

| SMILES | IC50 |
| --- | --- |
| C[C@@H]1CN(c2ccc(C#N)c3ncccc23)C[C@@H]2CCN(c3ccc(N4CCNCC4)nc3)CCN21 [Example 1, 5-[(4R,10aS)-4-methyl-8-(6-piperazin-1-yl-3-pyridyl)-1,3,4,6,7,9,10,10a-octahydropyrazino [1,2-d][1,4]diazepin-2-yl]quinoline-8-carbonitrile] | 61.7 nM |
| C[C@@H]1CN(c2ccc(C#N)c3ncccc23)C[C@@H]2CCN(c3cnc(N4CCNCC4)nc3)CCN21 [Example 2, 5-[(4R,10aS)-4-methyl-8-(2-piperazin-1-ylpyrimidin-5-yl)-1,3,4,6,7,9,10,10a-octahydropyrazino[1,2-d][1,4]diazepin-2-yl]quinoline-8-carbonitrile] | 25.2 nM |
| C[C@@H]1CN(c2ccc(C#N)c3ncccc23)C[C@@H]2CCN(c3ccc([C@H]4CNCCO4)cc3)CCN21 [Example 3, 5-[(4R,10aS)-4-methyl-8-[4-[(2S)-morpholin-2-yl]phenyl]-1,3,4,6,7,9,10,10a-octahydropyrazino[1,2-d][1,4]diazepin-2-yl]quinoline-8-carbonitrile] | 4.8 nM |
| C[C@@H]1CN(c2ccc(C#N)c3ncccc23)C[C@@H]2CCN(c3cncc4c3CCNC4)CCN21 [Example 4, 5-[(4R,10aS)-4-methyl-8-(5,6,7,8-tetrahydro-2,7-naphthyridin-4-yl)-1,3,4,6,7,9,10,10a-octahydropyrazino[1,2-d][1,4]diazepin-2-yl]quinoline-8-carbonitrile] | 2.4 nM |
| C[C@@H]1CN(c2ccc(C#N)c3ncccc23)C[C@@H]2CCN(c3ccc4c(n3)CNCC4)CCN21 [Example 5, 5-[(4R,10aS)-4-methyl-8-(5,6,7,8-tetrahydro-1,7-naphthyridin-2-yl)-1,3,4,6,7,9,10,10a-octahydropyrazino[1,2-d][1,4]diazepin-2-yl]quinoline-8-carbonitrile] | 3.9 nM |
| C[C@@H]1CN(c2ccc(C#N)c3ncccc23)C[C@@H]2CCN(c3ccc4c(n3)CCNC4)CCN21 [Example 6, 5-[(4R,10aS)-4-methyl-8-(5,6,7,8-tetrahydro-1,6-naphthyridin-2-yl)-1,3,4,6,7,9,10,10a-octahydropyrazino[1,2-d][1,4]diazepin-2-yl]quinoline-8-carbonitrile] | < 3.2 nM |

— US12421240B2, “Hydropyrazino[1,2-d][1,4]diazepine compounds for the treatment of autoimmune disease” (Hoffmann-La Roche Inc., priority 2019, dated 2025)
